“And” between values parts separate entries of the source, which are not always exact repeats. Equal entries are not always repeated.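 Grown in 96-well plates, cells were treated for 48 hours with each compound at five concentrations. Insufficient inhibition: endpoint recorded as highest concentration tested. GI50 is the concentration that inhibits growth by half. TGI denotes the concentration required for complete inhibition of growth.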
Legend:
Test in all cases: inhibition of tumour cell growth, NCI panel, 48 h
786-0 renal = tested on: 786-0 renal
ACHN renal = tested on: ACHN renal
HL-60(TB) leukemia = tested on: HL-60(TB) leukemia
HS 578T breast = tested on: HS 578T breast
MALME-3M melanoma = tested on: MALME-3M melanoma
OVCAR-4 ovarian = tested on: OVCAR-4 ovarian
OVCAR-5 ovarian = tested on: OVCAR-5 ovarian
OVCAR-8 ovarian = tested on: OVCAR-8 ovarian
PC-3 prostate = tested on: PC-3 prostate
RXF 393 renal = tested on: RXF 393 renal
SW-620 colon = tested on: SW-620 colon
T-47D breast = tested on: T-47D breast
UACC-62 melanoma = tested on: UACC-62 melanoma
SR leukemia = tested on: SR leukemia

Row | Structure (SMILES) | TGI (786-0 renal) [µM] | TGI (ACHN renal) [µM] | TGI (HL-60(TB) leukemia) [µM] | TGI (HS 578T breast) [µM] | TGI (MALME-3M melanoma) [µM] | TGI (OVCAR-4 ovarian) [µM] | TGI (OVCAR-5 ovarian) [µM] | TGI (OVCAR-8 ovarian) | TGI (PC-3 prostate) [µM] | TGI (RXF 393 renal) [µM] | TGI (SW-620 colon) [µM] | TGI (T-47D breast) [µM] | TGI (UACC-62 melanoma) [µM] | GI50 (ACHN renal) [nM] | GI50 (HS 578T breast) [nM] | GI50 (OVCAR-4 ovarian) [µM] | GI50 (OVCAR-8 ovarian) [nM] | GI50 (RXF 393 renal) [µM] | TGI (SR leukemia) [µM]
1 | S=C(S)NCNC(=S)S.[Zn+2] | > 100 | > 100 | > 100 | > 100 | > 100 | > 100 | > 100 | > 100 µM | > 100 | > 100 | > 100 | > 100 | > 100 |  |  |  |  |  | 
2 | O=c1cc(-c2cccc3ccccc23)[nH]c2ncccc12 | > 100 | > 100 | 0.0315 | > 100 | 0.0462 | > 100 | > 100 | 0.889 µM and 0.453 µM | > 100 |  | > 100 |  | > 100 | 42.5 | 18.6 | 77.6 | 33.8 | 11.9 | > 100
3 | Cn1c(=O)n(C2(C)C[Se]C2)c2ccccc21 | > 100 | > 100 | > 100 |  |  | > 100 | > 100 | > 100 µM |  | > 100 | > 100 |  | > 100 |  |  |  |  |  | > 100
4 | Nc1ncnc2c1ncn2[C@@H]1C[C@@H]1CO | > 100 | > 100 | > 100 | > 100 | > 100 |  | > 100 | > 100 µM | > 100 |  | > 100 | > 100 |  |  |  |  |  |  | > 100
5 | S=c1sc2c(Cl)nc(Cl)nc2n1-c1ccccc1 | > 100 | > 100 | 82.6 |  | > 100 | > 100 | > 100 | > 100 µM |  | 50.6 | 68.1 |  | 27.8 |  |  |  |  |  | 55.1
6 | CC12CC(c3ccccc3O1)C(C(=O)Nc1ccc(Cl)cc1Cl)C(=O)N2 (stereo not drawn) | 43.8 | 67.3 | 21.2 | 47.7 | 89.8 | 39.6 | > 100 | 30.6 µM | > 100 |  | > 100 | 70.9 | > 100 |  |  |  |  |  | 
7 | CN(C)CCC(=O)c1ccccc1 | 44.2 | > 69.2 | > 64.2 |  | 24.1 | > 74.1 | > 57.6 | > 71.9 µM |  | 61.6 | 32.4 |  | > 68.1 |  |  |  |  |  | 57.4
8 | COc1ccc(/C=C2\N=C(SC)N(CN3CCOCC3)C2=O)cc1 | > 100 | > 100 | > 100 | > 100 | > 100 | 78.2 | > 100 | > 100 µM | > 100 |  | > 100 |  | > 100 |  |  |  |  |  | > 100
9 | CC(=O)Oc1ccc2c(C)cc(=O)oc2c1OC(C)=O | > 100 | > 100 |  | 99.5 | 99.6 | > 100 | > 100 | > 100 µM | > 100 |  | > 100 |  | > 100 |  |  |  |  |  | > 100
10 | COc1ccc(S(=O)(=O)c2nnc(S(=O)(=O)Cc3ccccc3)s2)cc1 | 62.1 | 30.6 |  | 43 |  | > 100 | 54.5 | 49.4 µM | 47.7 | 31.2 | 44 | 91.9 |  |  |  |  |  |  | 
